Measured values taken from patent publication US4916122A, “3'-Azido-2',3'-dideoxyuridine anti-retroviral composition” (University of Georgia Research Foundation, Inc., priority 1987, dated 1990).
In brackets after ≈: the same amount, converted by molar mass. Several values for one entry are separate records, joined by “and”; a condition that tells them apart may be missing. Equal entries are not always repeated. Where two headings read alike, the source gives them in different places.

Legend:
HIV-1 = assay: microbe, parasite or virus in culture; settings: Human immunodeficiency virus 1, PBMC, read-out: PBM (EC50)
HIV-1 (Strain RF-II) = assay: Antiviral activity against HIV-1 in HeLa-T4 cells (Table 4); type: cell-based; settings: Human immunodeficiency virus 1, HeLaT4, HIV-1
Experimental: Evaluation in Hela-T4 cells infected with HIV-1 (Strain RF-II)
HeLa-T4 cells (described in Cell 47: 333, 1986) are maintained in Dulbecco's Modified Eagle medium containing 10% inactivated fetal calf serum, penicillin (100 U/ml) and streptomycin (100 μg/ml), and the antibiotic G418 (1 mg/ml). The cells are seeded onto a 96-well plate (2×10^4 cells/well per 0.1 ml), and two days later, the supernatant is removed and the virus added. After adsorption for 45 minutes, the inoculum is removed and the cells washed with phosphate-buffered saline (pH 7.2). The compounds at different concentration are then added in maintenance medium (containing 2% serum). […] The cells are fixed with a mixture of 5% glacial acetic acid/95% Ethanol for 15 minutes, and then stained with Giemsa (20% in PSB) for 4 hours. The plates are then washed and dried. The foci are then enumerated with a dissecting stereomicroscope.

HIV-1 (Strain HTLV-III) = assay: Antiviral activity against HIV-1 in ATH-8 cells (Table 4); settings: Human immunodeficiency virus 1, 240 h, read-out: ATH-8 (MIC)
Host cell α-DNA pol [1] = target: T1, Host cell α-DNA pol (Homo sapiens, UniProt P09884); assay: Effect of 5'-triphosphates on alpha DNA polymerase (Table 6); type: biochemical; settings: for Ratio: Cellular/HIV: K1 host cell α-DNA pol / K1 HIV RT
T1 sequence (P09884 1-1462): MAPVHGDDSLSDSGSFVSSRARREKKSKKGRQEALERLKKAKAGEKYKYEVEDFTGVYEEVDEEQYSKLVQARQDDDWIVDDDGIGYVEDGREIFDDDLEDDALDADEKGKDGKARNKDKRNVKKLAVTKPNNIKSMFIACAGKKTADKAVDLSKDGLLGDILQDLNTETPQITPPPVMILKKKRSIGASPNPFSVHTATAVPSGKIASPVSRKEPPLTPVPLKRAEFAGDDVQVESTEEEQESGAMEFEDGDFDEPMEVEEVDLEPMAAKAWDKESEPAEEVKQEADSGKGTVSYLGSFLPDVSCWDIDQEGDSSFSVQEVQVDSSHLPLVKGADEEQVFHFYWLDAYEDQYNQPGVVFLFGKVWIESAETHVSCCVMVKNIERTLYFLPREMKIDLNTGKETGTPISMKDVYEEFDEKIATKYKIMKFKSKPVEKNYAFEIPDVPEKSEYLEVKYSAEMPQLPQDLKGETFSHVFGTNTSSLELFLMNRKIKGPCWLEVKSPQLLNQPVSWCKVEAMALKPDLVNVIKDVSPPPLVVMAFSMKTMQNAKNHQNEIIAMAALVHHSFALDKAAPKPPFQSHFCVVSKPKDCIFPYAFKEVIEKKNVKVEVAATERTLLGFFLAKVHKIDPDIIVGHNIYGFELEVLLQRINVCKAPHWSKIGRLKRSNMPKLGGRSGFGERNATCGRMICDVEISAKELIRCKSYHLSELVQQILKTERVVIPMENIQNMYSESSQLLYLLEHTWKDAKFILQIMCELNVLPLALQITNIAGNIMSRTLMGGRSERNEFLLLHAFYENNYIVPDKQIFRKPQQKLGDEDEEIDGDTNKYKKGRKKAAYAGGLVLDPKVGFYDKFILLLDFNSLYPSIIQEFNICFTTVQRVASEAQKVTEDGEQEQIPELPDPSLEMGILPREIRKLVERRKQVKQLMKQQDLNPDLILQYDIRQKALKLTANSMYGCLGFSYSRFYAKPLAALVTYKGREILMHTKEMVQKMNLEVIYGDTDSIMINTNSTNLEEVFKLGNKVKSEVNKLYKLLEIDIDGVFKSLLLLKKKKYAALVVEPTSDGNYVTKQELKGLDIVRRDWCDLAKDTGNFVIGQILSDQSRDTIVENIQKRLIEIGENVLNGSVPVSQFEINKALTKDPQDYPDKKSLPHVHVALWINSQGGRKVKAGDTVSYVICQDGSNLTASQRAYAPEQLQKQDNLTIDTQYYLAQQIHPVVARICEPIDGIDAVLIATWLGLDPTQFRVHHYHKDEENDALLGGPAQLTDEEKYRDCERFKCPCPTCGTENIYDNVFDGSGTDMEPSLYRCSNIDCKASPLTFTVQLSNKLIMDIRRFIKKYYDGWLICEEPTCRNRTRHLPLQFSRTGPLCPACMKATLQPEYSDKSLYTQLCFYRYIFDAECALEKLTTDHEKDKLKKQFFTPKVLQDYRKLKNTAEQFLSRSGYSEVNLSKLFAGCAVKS

Host cell α-DNA pol [2] = target: T1, Host cell α-DNA pol; settings: 5'-triphosphate; according to Furman et al.; read-out: Host cell α-DNA pol K1; cited from earlier work
HIV RT [3] = target: T2, HIV RT (Human immunodeficiency virus type 1 group M subtype B, UniProt P03367); settings: 5'-triphosphate; according to Furman et al.; read-out: HIV RT K1; cited from earlier work
T2 construct: HIV reverse transcriptase

HIV RT [4] = target: T2, HIV RT; assay: Effect of 5'-triphosphates on HIV reverse transcriptase (Table 6); type: biochemical; settings: 5'-triphosphate; read-out: HIV RT K1
HIV = settings: in vitro
HIV-1 and SIV = assay: Effect of delayed treatment on replication of HIV-1 and SIV in human PBM cells (FIG. 7); type: cell-based, HIV-1; SIV
Description: (§1) A comparison of the differences in median effective an tiviral concentrations between human, non-human primate, and murine retroviruses is shown in Table 5. […] A further comparison of the activity of several nucleoside analogues, including CS-87, against HIV-1 and SIV in human PBM cells is shown in FIG. 6. The effect of delayed treatment with AZT, CS-87 or CS-91 on the replication of HIV-1 and SIV in human PBM cells is shown in FIGS. 7a, b, and c.

HIV (LAV-1) = assay: Median effective antiviral concentration against HIV (Table 5); type: cell-based; settings: Human immunodeficiency virus 1
HIV-1 p24 = assay: Inhibition of HIV replication in human PBM cells, p24 RIA (Table 3)
uninfected cells = settings: CS-87 compared with AZT
HIV-1 (strain LAV) = assay: Inhibition of HIV replication in human PBM cells, reverse transcriptase assay (Table 3)
HIV p24 and p41 = assay: Inhibition of HIV replication in human PBM cells, western blot analysis (Table 3)
Friend (EY-10) = assay: Median effective antiviral concentration against Friend virus (Table 5); type: cell-based, murine retrovirus; settings: unidentified retrovirus, in Mus musculus
Description: as §1

SIV (SMM) = assay: Median effective antiviral concentration against SIV (Table 5); type: cell-based, simian immunodeficiency virus; settings: Simian immunodeficiency virus
Description: as §1

[5] = preliminary results, Yarchoan et al. 1986; cited from earlier work
NIH Swiss mice = settings: oral 0.5 mg/ml ad libitum, 67 days
Friend Leukemia virus = settings: Ostertag et al.; Krieg et al.; cited from earlier work
[6] = tested on: Mouse ecotropic (Cas-Br-M); assay: Median effective antiviral concentration against mouse ecotropic virus (Table 5); type: cell-based, murine retrovirus; settings: unidentified retrovirus
Description: as §1

[7] = Human immunodeficiency virus 1, PBMC, in Homo sapiens, read-out: RIA p24 % Inhibition
[8] = Human immunodeficiency virus 1, PBMC, in Homo sapiens, read-out: RT % Inhibition (corrected)
[9] = individual mouse, listed as AzT
[10] = individual mouse, listed as Azt

Nc1ccn([C@H]2CC[C@@H](CO)O2)c(=O)n1 [d2C (ddC), 2',3'-dideoxycytidine, reference compound]
EC50 (HIV-1): 0.011 µM
EC50 (HIV-1 (Strain RF-II)): 0.48 µM
MIC (HIV-1 (Strain HTLV-III)): 0.47 µM (≈ 0.0993 µg/mL)

Cc1cn([C@H]2C[C@H](N=[N+]=[N-])[C@@H](CO[P@](=O)(O)O[P@](=O)(O)OP(=O)(O)O)O2)c(=O)[nH]c1=O [AZT-TP]
Ratio: Cellular/HIV (Host cell α-DNA pol [1]): 5,750
Ki (Host cell α-DNA pol [2]): 230 µM
Ki (HIV RT [3]): 0.04 µM

[N-]=[N+]=N[C@H]1C[C@H](n2ccc(=O)[nH]c2=O)O[C@@H]1COP(=O)(O)OP(=O)(O)OP(=O)(O)O [CS-87-TP, 3'-azido-2',3'-dideoxyuridine triphosphate]
Ki (Host cell α-DNA pol [1]; 5'-triphosphate, read-out: Host cell α-DNA pol K1): 1200 µM
Ratio: Cellular/HIV (Host cell α-DNA pol [1]): 133,333
Ki (HIV RT [4]): 0.009 µM

Cc1cn([C@H]2C[C@H](N=[N+]=[N-])[C@@H](CO)O2)c(=O)[nH]c1=O [AZT, 3'-azido-3'-deoxythymidine, reference compound]
activity against HIV, in words (HIV): somewhat more active than CS-87
effect of delayed treatment on replication of HIV-1 and SIV (HIV-1 and SIV): time of administration is critical to the effectiveness of the treatment
EC50 (HIV (LAV-1)): 0.002 µM
RIA p24 (Dupont kit) (HIV-1 p24; 0.01 μM): 4.39 ng/mL
RIA p24 (Dupont kit) (HIV-1 p24; 0.1 μM): 0.51 ng/mL
RIA p24 (Dupont kit) (HIV-1 p24; 1 μM): 0.18 ng/mL
inhibition at 0.01 µM (HIV-1 p24; [7]): 81.8%
inhibition at 0.1 µM (HIV-1 p24; [7]): 97.9%
inhibition at 1 µM (HIV-1 p24; [7]): 99.3%
cytotoxicity / toxicity in words (uninfected cells): much greater toxicity
RT: Mean DPM/ml on day 5 (3 day old cells) (HIV-1 (strain LAV); 0.01 μM): 65,208 DPM/ml
RT: Mean DPM/ml on day 5 (3 day old cells) (HIV-1 (strain LAV); 0.1 μM): 6,144 DPM/ml
RT: Mean DPM/ml on day 5 (3 day old cells) (HIV-1 (strain LAV); 1 μM): 2,304 DPM/ml
inhibition at 0.01 µM (HIV-1 (strain LAV); [8]): 89.8%
inhibition at 0.1 µM (HIV-1 (strain LAV); [8]): 99.1%
inhibition at 1 µM (HIV-1 (strain LAV); [8]): 99.7%
Western blot p24 (band intensity) (HIV p24 and p41; 0.01 μM): 2+
Western blot p41 (band intensity) (HIV p24 and p41; 0.01 μM): 1+
Western blot p24 (band intensity) (HIV p24 and p41; 0.1 μM): 0
Western blot p41 (band intensity) (HIV p24 and p41; 0.1 μM): 0
Western blot p24 (band intensity) (HIV p24 and p41; 1 μM): 0
Western blot p41 (band intensity) (HIV p24 and p41; 1 μM): 0
EC50 (Friend (EY-10)): 0.004 µM
EC50 (HIV-1): 0.002 µM
EC50 (SIV (SMM)): 0.002 µM
toxicity in a clinical setting [5]: exhibits toxicity
Hct (NIH Swiss mice; Mean of group): 28.7%
Hgb (NIH Swiss mice; Mean of group): 9.2 g/dL
MCH (NIH Swiss mice; Mean of group): 21.4 pg
MCHC (NIH Swiss mice; Mean of group): 32.0 g/dL
MCV (NIH Swiss mice; Mean of group): 66.8 fL
PLT (NIH Swiss mice; Mean of group): 1.2 × 10^6
RBC (NIH Swiss mice; Mean of group): 4.3 × 10^6
RDW (NIH Swiss mice; Mean of group): 23.4%
WBC (NIH Swiss mice; Mean of group): 6.6 × 10^3
Hct (NIH Swiss mice; [9]): 28.4% and 35.0%
Hgb (NIH Swiss mice; [9]): 9.1 g/dL and 11.0 g/dL
MCH (NIH Swiss mice; [9]): 22.1 pg and 21.2 pg
MCHC (NIH Swiss mice; [9]): 32.1 g/dL and 31.4 g/dL
MCV (NIH Swiss mice; [9]): 68.9 fL and 67.4 fL
PLT (NIH Swiss mice; [9]): 1.076 × 10^6 and 1.292 × 10^6
RBC (NIH Swiss mice; [9]): 4.1 × 10^6 and 5.2 × 10^6
RDW (NIH Swiss mice; [9]): 29.9% and 17.8%
WBC (NIH Swiss mice; [9]): 4.5 × 10^3 and 8.8 × 10^3
Hct (NIH Swiss mice; [10]): 21.1% and 30.1%
Hgb (NIH Swiss mice; [10]): 6.9 g/dL and 9.6 g/dL
MCH (NIH Swiss mice; [10]): 20.5 pg and 21.6 pg
MCHC (NIH Swiss mice; [10]): 32.6 g/dL and 31.9 g/dL
MCV (NIH Swiss mice; [10]): 62.9 fL and 67.8 fL
PLT (NIH Swiss mice; [10]): 1.187 × 10^6 and 1.112 × 10^6
RBC (NIH Swiss mice; [10]): 3.4 × 10^6 and 4.4 × 10^6
RDW (NIH Swiss mice; [10]): 24.6% and 21.3%
WBC (NIH Swiss mice; [10]): 5.2 × 10^3 and 7.9 × 10^3
activity against Friend Leukemia virus (Friend Leukemia virus): activity against Friend Leukemia virus
EC50 (HIV-1 (Strain RF-II)): 0.34 µM
EC50 [6]: 0.007 µM
MIC (HIV-1 (Strain HTLV-III)): 0.32 µM (≈ 0.0855 µg/mL)
